The record followed here is patent US11739101B2, “Bifunctional degraders of hematopoietic progenitor kinase and therapeutic uses thereof” (Nurix Therapeutics, Inc., priority 2020, dated 2023).

A value given as a limit tells only on which side of the number the result lay.

T1 sequence (Q92918 whole entry): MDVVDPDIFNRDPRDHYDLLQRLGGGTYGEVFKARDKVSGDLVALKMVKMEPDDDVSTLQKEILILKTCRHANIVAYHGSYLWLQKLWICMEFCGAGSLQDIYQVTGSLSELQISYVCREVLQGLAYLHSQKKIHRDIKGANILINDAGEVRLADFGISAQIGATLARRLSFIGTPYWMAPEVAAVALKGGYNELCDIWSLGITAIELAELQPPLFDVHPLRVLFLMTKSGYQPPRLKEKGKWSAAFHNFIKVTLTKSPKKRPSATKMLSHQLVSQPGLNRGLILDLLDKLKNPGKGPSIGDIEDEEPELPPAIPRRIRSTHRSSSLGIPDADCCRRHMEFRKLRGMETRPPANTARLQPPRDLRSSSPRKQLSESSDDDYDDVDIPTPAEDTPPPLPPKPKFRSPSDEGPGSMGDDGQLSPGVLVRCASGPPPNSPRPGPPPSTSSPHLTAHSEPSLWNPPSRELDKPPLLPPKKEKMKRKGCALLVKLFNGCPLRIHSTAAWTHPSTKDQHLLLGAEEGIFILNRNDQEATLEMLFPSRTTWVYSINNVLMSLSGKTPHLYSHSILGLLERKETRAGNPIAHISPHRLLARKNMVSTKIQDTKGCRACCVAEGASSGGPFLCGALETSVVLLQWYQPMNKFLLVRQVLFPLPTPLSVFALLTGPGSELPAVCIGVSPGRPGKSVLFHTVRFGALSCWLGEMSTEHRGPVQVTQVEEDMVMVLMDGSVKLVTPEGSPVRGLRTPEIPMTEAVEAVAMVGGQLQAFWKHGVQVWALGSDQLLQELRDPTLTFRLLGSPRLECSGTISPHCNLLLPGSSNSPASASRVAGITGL

The assay has as its target T1, HPK1 (Homo sapiens, UniProt Q92918).
T1 construct: A HiBiT tag was introduced by CRISPR on the N terminus of HPK1 in Jurkat cells; host or cells: Jurkat (ATCC TIB-152), monoclonal CRISPR HiBiT knock-in line
Put plainly: HPK1 Cellular HiBiT Degradation Assay. The format is cell-based. The conditions noted are these: HiBiT-tagged HPK1 Jurkat cells, 24 hours, 10 uM to 0.1 nM; Dmax = 100 minus lowest % HPK1 remaining vs DMSO vehicle. Summed up: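 Jurkat cells with CRISPR N-terminal HiBiT-tagged HPK1 were exposed to an 11-point 3.16-fold dilution series, 10 uM to 0.1 nM final, for 24 hours at 37° C./5% CO2. HPK1 was read by HiBiT lytic luminescence against DMSO as 100% and parental cells as background. Dmax is 100 minus the lowest % remaining from a four-parameter fit, with a parallel CellTiter-Glo viability check.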
On the technique in general: HiBiT is a short tag that completes a luciferase, so light tracks the accessible tagged protein.
For the compound `Cc1cc(F)c(Nc2nc(-c3ccc4c(c3)N([C@H]3C[C@@H](N5CCCCC5)C3)C(=O)C43CCN(C(=O)C[C@@H]4CCN(C(=O)[C@H]5CC[C@H](Nc6cccc7c6C(=O)N(C6CCC(=O)NC6=O)C7=O)CC5)C4)CC3)cc3ncn(C(C)C)c23)cc1C(=O)NC(C)C` (stereo partly drawn) [Example 56, 4-fluoro-2-methyl-5-{[6-(2-oxo-1′-{2-[(3S)-1-[(1R,4R)-4-({2-[2,6-dioxopiperidin-3-yl]-1,3-dioxo-2,3-dihydro-1H-isoindol-4-yl}amino)cyclohexanecarbonyl]pyrrolidin-3-yl]acetyl}-1-[(1s,3s)-3-(piperidin-1-yl)cyclobutyl]-1,2-dihydrospiro[indole-3,4′-piperidin]-6-yl)-3-(propan-2-yl)-3H-imidazo[4,5-c]pyridin-4-yl]amino}-N-(propan-2-yl)benzamide], the Dmax is below 45%.

Consider `Cc1cc(F)c(Nc2nc(-c3ccc4c(c3)N([C@H]3C[C@@H](N5CCCCC5)C3)C(=O)C43CCN(C(=O)C[C@H]4CCN(C(=O)[C@H]5CC[C@H](Nc6cccc7c6C(=O)N(C6CCC(=O)NC6=O)C7=O)CC5)C4)CC3)cc3ncn(C(C)C)c23)cc1C(=O)NC(C)C` (stereo partly drawn) [Example 57, 4-fluoro-2-methyl-5-{[6-(2-oxo-1′-{2-[(3R)-1-[(1R,4R)-4-({2-[2,6-dioxopiperidin-3-yl]-1,3-dioxo-2,3-dihydro-1H-isoindol-4-yl}amino)cyclohexanecarbonyl]pyrrolidin-3-yl]acetyl}-1-[(1s,3s)-3-(piperidin-1-yl)cyclobutyl]-1,2-dihydrospiro[indole-3,4′-piperidin]-6-yl)-3-(propan-2-yl)-3H-imidazo[4,5-c]pyridin-4-yl]amino}-N-(propan-2-yl)benzamide], for which the Dmax was below 45%.

For `Cc1cc(F)c(Nc2nc(-c3ccc4c(c3)N([C@H]3C[C@@H](N5CCCCC5)C3)C(=O)C43CCN(C(=O)c4ccc(S(=O)(=O)N5CCN(c6ccc7c(c6)C(=O)N(C6CCC(=O)NC6=O)C7=O)CC5)cc4)CC3)cc3ncn(C(C)C)c23)cc1C(=O)NC(C)C` (stereo partly drawn) [Example 58, 5-[(6-{1′-[4-({4-[2-(2,6-dioxopiperidin-3-yl)-1,3-dioxo-2,3-dihydro-1H-isoindol-5-yl]piperazin-1-yl}sulfonyl)benzoyl]-2-oxo-1-[(1s,3s)-3-(piperidin-1-yl)cyclobutyl]-1,2-dihydrospiro[indole-3,4′-piperidin]-6-yl}-3-(propan-2-yl)-3H-imidazo[4,5-c]pyridin-4-yl)amino]-4-fluoro-2-methyl-N-(propan-2-yl)benzamide], the Dmax was below 45%.

`Cc1cc(F)c(Nc2nc(-c3ccc4c(c3)N([C@H]3C[C@@H](N5CCCCC5)C3)C(=O)C43CCN(C(=O)c4ccc(CC5CCN(c6cccc7c6C(=O)N(C6CCC(=O)NC6=O)C7=O)CC5)cc4)CC3)cc3ncn(C(C)C)c23)cc1C(=O)NC(C)C` (stereo partly drawn) [Example 59, 5-[(6-{1′-[4-({1-[2-(2,6-dioxopiperidin-3-yl)-1,3-dioxo-2,3-dihydro-1H-isoindol-4-yl]piperidin-4-yl}Methyl)benzoyl]-2-oxo-1-[(1s,3s)-3-(piperidin-1-yl)cyclobutyl]-1,2-dihydrospiro[indole-3,4′-piperidin]-6-yl}-3-(propan-2-yl)-3H-imidazo[4,5-c]pyridin-4-yl)amino]-4-fluoro-2-methyl-N-(propan-2-yl)benzamide]: the Dmax lay in the range of 45 to 65%.

For the compound `Cc1cc(F)c(Nc2nc(-c3ccc4c(c3)N([C@H]3C[C@@H](N5CCCCC5)C3)C(=O)C43CCN(C(=O)C4CCN(C(=O)[C@H]5CC[C@H](Nc6cccc7c6C(=O)N(C6CCC(=O)NC6=O)C7=O)CC5)CC4)CC3)cc3ncn(C(C)C)c23)cc1C(=O)NC(C)C` (stereo partly drawn) [Example 60, 4-fluoro-2-methyl-5-{[6-(2-oxo-1′-{1-[(1R,4R)-4-({2-[2,6-dioxopiperidin-3-yl]-1,3-dioxo-2,3-dihydro-1H-isoindol-4-yl}amino)cyclohexanecarbonyl]piperidine-4-carbonyl}-1-[(1s,3s)-3-(piperidin-1-yl)cyclobutyl]-1,2-dihydrospiro[indole-3,4′-piperidin]-6-yl)-3-(propan-2-yl)-3H-imidazo[4,5-c]pyridin-4-yl]amino}-N-(propan-2-yl)benzamide], the Dmax was above 65%.

With `Cc1cc(F)c(Nc2nc(-c3ccc4c(c3)N(C3CC(N5CCCCC5)C3)C(=O)C43CCN(C(=O)c4ccc(C(=O)N(C)C5CCC(Nc6cccc7c6C(=O)N(C6CCC(=O)NC6=O)C7=O)CC5)cc4)CC3)cc3ncn(C(C)C)c23)cc1C(=O)NC(C)C` [Example 61, 4-fluoro-2-methyl-5-({6-[1′-(4-{methyl[(1R,4R)-4-{[2-(2,6-dioxopiperidin-3-yl)-1,3-dioxo-2,3-dihydro-1H-isoindol-4-yl]amino}cyclohexyl]carbamoyl}benzoyl)-2-oxo-1-[(1s,3s)-3-(piperidin-1-yl)cyclobutyl]-1,2-dihydrospiro[indole-3,4′-piperidin]-6-yl]-3-(propan-2-yl)-3H-imidazo[4,5-c]pyridin-4-yl}amino)-N-(propan-2-yl)benzamide], the “Cellular HPK1 HiBiT: Dmax (%)” value was “A (A>65%)”.

The compound `Cc1cc(F)c(Nc2nc(-c3ccc4c(c3)N([C@H]3C[C@@H](N5CCCCC5)C3)C(=O)C43CCN(C(=O)[C@H]4CC[C@@H](C(=O)N5CCC(N(C)c6cccc7c6C(=O)N(C6CCC(=O)NC6=O)C7=O)CC5)CC4)CC3)cc3ncn(C(C)C)c23)cc1C(=O)NC(C)C` (stereo partly drawn) [Example 62, 4-fluoro-2-methyl-5-[(6-{2-oxo-1-[(1s,3s)-3-(piperidin-1-yl)cyclobutyl]-1′-[(1S,4s)-4-(4-{[2-(2,6-dioxopiperidin-3-yl)-1,3-dioxo-2,3-dihydro-1H-isoindol-4-yl](methyl)amino}piperidine-1-carbonyl)cyclohexanecarbonyl]-1,2-dihydrospiro[indole-3,4′-piperidin]-6-yl}-3-(propan-2-yl)-3H-imidazo[4,5-c]pyridin-4-yl)amino]-N-(propan-2-yl)benzamide] had a Dmax of 45 to 65%.

In turn, `Cc1cc(F)c(Nc2nc(-c3ccc4c(c3)N([C@H]3C[C@@H](N5CCCCC5)C3)C(=O)C43CCN(C(=O)c4ccc(OC5CCN(c6cccc7c6C(=O)N(C6CCC(=O)NC6=O)C7=O)CC5)cc4)CC3)cc3ncn(C(C)C)c23)cc1C(=O)NC(C)C` (stereo partly drawn) [Example 63, 5-{[6-(1′-{4-[(1-{2-[2,6-dioxopiperidin-3-yl]-1,3-dioxo-2,3-dihydro-1H-isoindol-4-yl}piperidin-4-yl)oxy]benzoyl}-2-oxo-1-[(1s,3s)-3-(piperidin-1-yl)cyclobutyl]-1,2-dihydrospiro[indole-3,4′-piperidin]-6-yl)-3-(propan-2-yl)-3H-imidazo[4,5-c]pyridin-4-yl]amino}-4-fluoro-2-methyl-N-(propan-2-yl)benzamide] yielded a Dmax above 65%.

For the compound `Cc1cc(F)c(Nc2nc(-c3ccc4c(c3)N([C@H]3C[C@@H](N5CCCCC5)C3)C(=O)C43CCN(C(=O)c4ccc(OC5CCN(c6ccc7c(c6)C(=O)N(C6CCC(=O)NC6=O)C7=O)CC5)cc4)CC3)cc3ncn(C(C)C)c23)cc1C(=O)NC(C)C` (stereo partly drawn) [Example 64, 5-{[6-(1′-{4-[(1-{2-[2,6-dioxopiperidin-3-yl]-1,3-dioxo-2,3-dihydro-1H-isoindol-5-yl}piperidin-4-yl)oxy]benzoyl}-2-oxo-1-[(1s,3s)-3-(piperidin-1-yl)cyclobutyl]-1,2-dihydrospiro[indole-3,4′-piperidin]-6-yl)-3-(propan-2-yl)-3H-imidazo[4,5-c]pyridin-4-yl]amino}-4-fluoro-2-methyl-N-(propan-2-yl)benzamide], the Dmax was above 65%.

`Cc1cc(F)c(Nc2nc(-c3ccc4c(c3)N([C@H]3C[C@@H](N5CCCCC5)C3)C(=O)C43CCN(C(=O)c4ccn(C5CCN(Cc6cccc7c6C(=O)N(C6CCC(=O)NC6=O)C7=O)CC5)n4)CC3)cc3ncn(C(C)C)c23)cc1C(=O)NC(C)C` (stereo partly drawn) [Example 65, 5-{[6-(1′-{1-[1-({2-[2,6-dioxopiperidin-3-yl]-1,3-dioxo-2,3-dihydro-1H-isoindol-4-yl}methyl)piperidin-4-yl]-1H-pyrazole-3-carbonyl}-2-oxo-1-[(1s,3s)-3-(piperidin-1-yl)cyclobutyl]-1,2-dihydrospiro[indole-3,4′-piperidin]-6-yl)-3-(propan-2-yl)-3H-imidazo[4,5-c]pyridin-4-yl]amino}-4-fluoro-2-methyl-N-(propan-2-yl)benzamide] had a Dmax of 45 to 65%.

As for `Cc1cc(F)c(Nc2nc(-c3ccc4c(c3)N([C@H]3C[C@@H](N5CCCCC5)C3)C(=O)C43CCN(C(=O)C4CCN(C(=O)[C@H]5CC[C@H](N(C)c6cccc7c6C(=O)N(C6CCC(=O)NC6=O)C7=O)CC5)CC4)CC3)cc3ncn(C(C)C)c23)cc1C(=O)NC(C)C` (stereo partly drawn) [Example 66, 4-fluoro-2-methyl-5-{[6-(2-oxo-1′-{1-[(1R,4R)-4-({2-[2,6-dioxopiperidin-3-yl]-1,3-dioxo-2,3-dihydro-1H-isoindol-4-yl}(methyl)amino)cyclohexanecarbonyl]piperidine-4-carbonyl}-1-[(1s,3s)-3-(piperidin-1-yl)cyclobutyl]-1,2-dihydrospiro[indole-3,4′-piperidin]-6-yl)-3-(propan-2-yl)-3H-imidazo[4,5-c]pyridin-4-yl]amino}-N-(propan-2-yl)benzamide], the Dmax is above 65%.

As for `Cc1cc(F)c(Nc2nc(-c3ccc4c(c3)N([C@H]3C[C@@H](N5CCCCC5)C3)C(=O)C43CCN(C(=O)[C@@H]4CCN(C(=O)[C@H]5CC[C@H](N(C)c6cccc7c6C(=O)N(C6CCC(=O)NC6=O)C7=O)CC5)C4)CC3)cc3ncn(C(C)C)c23)cc1C(=O)NC(C)C` (stereo partly drawn) [Example 67, 4-fluoro-2-methyl-5-[(6-{2-oxo-1′-[(3R)-1-[(R,4R)-4-({2-[2,6-dioxopiperidin-3-yl]-1,3-dioxo-2,3-dihydro-1H-isoindol-4-yl}(Methyl)amino)cyclohexanecarbonyl]pyrrolidine-3-carbonyl]-1-[(1s,3s)-3-(piperidin-1-yl)cyclobutyl]-1,2-dihydrospiro[indole-3,4′-piperidin]-6-yl}-3-(propan-2-yl)-3H-imidazo[4,5-c]pyridin-4-yl)amino]-N-(propan-2-yl)benzamide], the Dmax was above 65%.

As a reminder, the Dmax is the greatest extent of degradation seen.
